Measured values taken from article PMC11990924, “Inhibition of Tyrosinase and Melanogenesis by Carboxylic Acids: Mechanistic Insights and Safety Evaluation” (Molecules, 2025).
Read-outs that look alike come from different tables or passages of the source.

What was measured:
[1] = target: mushroom tyrosinase (Agaricus bisporus, UniProt C7FF04); test: Inhibition of mushroom tyrosinase activity (L-DOPA, OD475); assay type: biochemical; conditions: read-out: tyrosinase inhibition rate
Protocol: L-DOPA solution (5 mM) and tyrosinase (400 U/mL) (Sigma-Aldrich, St. Louis, MO, USA) were prepared in PBS buffer (pH 7.4) (Qingdao Hope Bio-Technology Co., Ltd., Qingdao, China). A reaction mixture was prepared by combining 240 μL of carboxylic acid at various concentrations, 360 μL of L-DOPA solution, and 120 μL of tyrosinase. […] Deionized water was used as the control.

[2] = L-DOPA auto-oxidation analysis; conditions: for IC50: 37 °C, 12 h, calculated using SPSS, read-out: IC50 for L-DOPA auto-oxidation inhibition
Protocol: A 5 mM L-DOPA solution was prepared in PBS buffer (pH 7.4). Subsequently, 240 μL of carboxylic acid solution, 360 μL of L-DOPA solution, and 120 μL of PBS buffer were sequentially mixed. The mixture was then incubated at 37 °C for 12 h. […] Deionized water was used as the control. The inhibition of L-DOPA auto-oxidation was calculated using the same method as the melanin content analysis.

Chain of mushroom tyrosinase (C7FF04 2-392): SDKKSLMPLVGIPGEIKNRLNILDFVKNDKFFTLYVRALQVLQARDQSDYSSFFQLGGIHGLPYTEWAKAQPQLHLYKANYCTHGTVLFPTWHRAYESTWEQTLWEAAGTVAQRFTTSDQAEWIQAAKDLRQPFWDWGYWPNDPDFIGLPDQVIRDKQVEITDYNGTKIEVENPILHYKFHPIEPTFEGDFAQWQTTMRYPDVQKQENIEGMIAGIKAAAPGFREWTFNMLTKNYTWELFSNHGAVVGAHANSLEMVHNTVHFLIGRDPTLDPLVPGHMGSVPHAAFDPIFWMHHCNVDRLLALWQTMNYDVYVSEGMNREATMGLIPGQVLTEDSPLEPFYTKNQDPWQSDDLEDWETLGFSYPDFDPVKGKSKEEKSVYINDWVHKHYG

| SMILES | inhibition at 6000 µM ([1]; 6 mM) | L-DOPA auto-oxidation inhibition rate ([2]; 1.5 mM) | IC50 [2] | inhibition at 6000 µM [1] | L-DOPA auto-oxidation inhibition rate ([2]; 0.75 mM) |
| --- | --- | --- | --- | --- | --- |
| O=C(O)C(O)Cc1ccccc1 (stereo not drawn) [3-phenyllactic acid] | > 80% | exceeding 80% | 630 µM |  |  |
| O=C(O)CC(O)C(=O)O (stereo not drawn) [malic acid] |  |  | 380 µM | > 80% | exceeding 80% |
